# Read-outs that look alike come from different tables or passages of the source.
# Legend:
# Format in all cases: in vivo, mice
# MRI-H-254 tumors = system: MRI-H-254 tumors
# Protocol: Female athymic nude mice (Harlan Sprague Dawley, Madison, Wis.) were utilized for all experiments. Animals were housed in ventilated rack caging with food and water ad libitum. The mice were acclimated for at least 5 days prior to tumor implantation with tumor fragments.
# Treatments were initiated on DPI 16.
# (§1) Tumor size measurements were recorded twice weekly from the treatment initiation until the termination of the study.
# (§2) Mean, standard deviation and standard error of the mean were determined for tumor volume for all animal groups at all assessments. Student's t test was performed on tumor volumes at each measurement day, including at the end of the study, to determine whether there were any statistically significant differences between combination treatment groups and single monotherapy treatment groups.
# PLC/PRF/5 tumors = system: PLC/PRF/5 tumors
# Protocol: (§3) Female athymic nude mice (Harlan Sprague Dawley, Madison, Wis.) were utilized for all experiments. Animals were housed in ventilated rack caging with food and water ad libitum. The mice were acclimated for at least 5 days prior to tumor implantation with a tumor cell suspension.
# The tumor model used in these studies was PLC/PRF/5 cell line, which was obtained from the ATCC (Manassas, Va.).
# PLC/PRF/5 were grown in Eagle's minimum essential medium supplemented with 10% FBS and 1% L-glutamine. Each animal was implanted SC on the right flank, using a 13G trochar and 1 mL syringe, with 5×10^6 PLC/PRF/5 cells in a 0.2 mL suspension of 50% Matrigel and 50% serum free MEM medium, without antibiotics. Bacterial cultures were performed on aliquots of the cells prepared for implantation.
# Treatments were initiated on DPI 14.
# as §1, §2
# HepG2 tumors = system: HepG2 tumors
# Protocol: as §3
# The tumor model used in these studies was HepG2 cell line, which was obtained from the ATCC (Manassas, Va.).
# HepG2 cells were grown in MEM supplemented with 10% FBS, 1.5 g/L sodium bicarbonate, 0.1 mM non-essential amino acids, 1.0 mM sodium pyruvate, and 2 mM L-glutamine. Each animal was implanted SC on the right flank, using a 13G trochar, with 5×10^6 HepG2 cells in a 0.2 mL suspension of 50% Matrigel and 50% serum free medium, without antibiotics. Bacterial cultures were performed on aliquots of the cells prepared for implantation.
# Treatments were initiated on DPI 19.
# as §1, §2
# NCI-H460 tumors = conditions: alone or with PM00104 0.9 mg/kg/day IV
# Protocol: Female athymic nude mice (Harlan Sprague Dawley, Madison, Wis.) were utilized for all experiments. Animals were housed in ventilated rack caging with food and water ad libitum. The mice were acclimated for at least 5 days prior to tumor implantation.
# The tumor model used in this study was NCI-H460 cell line which is a human NSCLC cell line obtained from the ATCC (Manassas, Va.). […] Cells from in vitro passage 7 were implanted SC into study mice using a 1 ml syringe with a 13G trocar: 5×10^6 cells/mouse in 0.2 ml 50% Matrigel/50% RPMI medium of NCI-H460 without serum or antibiotics. Bacterial culture was taken on cells used to implant the study.
# Treatments were initiated on DPI 9.
# Tumor size measurements were recorded 2-3 times/week from the treatment initiation until the termination of the study.
# as §2
# [1] = day 20, PM00104 0.90, cisplatin 3, irinotecan 10, paclitaxel 12.5 mg/kg/day
# [2] = day 20, PM00104 0.90, cisplatin 5, irinotecan 18, paclitaxel 25 mg/kg/day
# [3] = day 23, PM00104 0.90, cisplatin 3, irinotecan 10, paclitaxel 12.5 mg/kg/day
# [4] = day 26, PM00104 0.90, cisplatin 3, irinotecan 10, paclitaxel 12.5 mg/kg/day
# [5] = day 29, PM00104 0.90, cisplatin 3, irinotecan 10, paclitaxel 12.5 mg/kg/day
# [6] = day 40, PM00104 0.90, cisplatin 3, irinotecan 10, paclitaxel 12.5 mg/kg/day
# [7] = day 40, PM00104 0.90, cisplatin 5, irinotecan 18, paclitaxel 25 mg/kg/day
# [8] = day 48, PM00104 0.90, cisplatin 3, irinotecan 10, paclitaxel 12.5 mg/kg/day
# [9] = day 48, PM00104 0.90, cisplatin 5, irinotecan 18, paclitaxel 25 mg/kg/day
# [10] = day 14, PM00104 0.90, sorafenib 60 mg/kg/day
# [11] = day 22, PM00104 0.90, sorafenib 30 mg/kg/day
# [12] = day 22, PM00104 0.90, sorafenib 60 mg/kg/day
# [13] = day 25, PM00104 0.90, sorafenib 60 mg/kg/day
# [14] = day 28, PM00104 0.90, sorafenib 60 mg/kg/day
# [15] = day 32, PM00104 0.90, sorafenib 60 mg/kg/day
# [16] = day 39, PM00104 0.90, sorafenib 60 mg/kg/day
# [17] = day 42, PM00104 0.90, sorafenib 60 mg/kg/day
# [18] = day 19, PM00104 0.90, sorafenib 30 mg/kg/day
# [19] = day 26, PM00104 0.90, sorafenib 60 mg/kg/day
# [20] = day 30, PM00104 0.90, sorafenib 30 mg/kg/day
# [21] = day 30, PM00104 0.90, sorafenib 60 mg/kg/day
# [22] = day 33, PM00104 0.90, sorafenib 60 mg/kg/day
compound,measurement,setting,value
CCc1c2c(nc3ccc(OC(=O)N4CCC(N5CCCCC5)CC4)cc13)-c1cc3c(c(=O)n1C2)COC(=O)[C@]3(O)CC [irinotecan],% Inhibition,"MRI-H-254 tumors; day 16, PM00104 0.90, cisplatin 3, irinotecan 10, paclitaxel 12.5 mg/kg/day",1.6%
same,% Inhibition,"MRI-H-254 tumors; day 16, PM00104 0.90, cisplatin 5, irinotecan 18, paclitaxel 25 mg/kg/day",1.9%
same,% Inhibition,MRI-H-254 tumors; [1],7.5%
same,% T/C,MRI-H-254 tumors; [1],92.5%
same,% Inhibition,MRI-H-254 tumors; [2],7.9%
same,% T/C,MRI-H-254 tumors; [2],92.1%
same,% Inhibition,MRI-H-254 tumors; [3],7.0%
same,% T/C,MRI-H-254 tumors; [3],93.0%
same,% Inhibition,"MRI-H-254 tumors; day 23, PM00104 0.90, cisplatin 5, irinotecan 18, paclitaxel 25 mg/kg/day",16.0%
same,% Inhibition,MRI-H-254 tumors; [4],9.8%
same,% T/C,MRI-H-254 tumors; [4],90.2%
same,% Inhibition,"MRI-H-254 tumors; day 26, PM00104 0.90, cisplatin 5, irinotecan 18, paclitaxel 25 mg/kg/day",25.0%
same,% Inhibition,MRI-H-254 tumors; [5],11.4%
same,% T/C,MRI-H-254 tumors; [5],88.6%
same,% Inhibition,MRI-H-254 tumors; [6],50.8%
same,% T/C,MRI-H-254 tumors; [6],49.2%
same,% Inhibition,MRI-H-254 tumors; [7],59.9%
same,% T/C,MRI-H-254 tumors; [7],40.1%
same,% Inhibition,MRI-H-254 tumors; [8],58.6%
same,% T/C,MRI-H-254 tumors; [8],41.4%
same,% Inhibition,MRI-H-254 tumors; [9],65.1%
same,% T/C,MRI-H-254 tumors; [9],34.9%
CNC(=O)c1cc(Oc2ccc(NC(=O)Nc3ccc(Cl)c(C(F)(F)F)c3)cc2)ccn1 [sorafenib],% T/C,"PLC/PRF/5 tumors; day 14, PM00104 0.90, sorafenib 30 mg/kg/day",99.5%
same,% Inhibition,PLC/PRF/5 tumors; [10],1.5%
same,% T/C,PLC/PRF/5 tumors; [10],98.5%
same,% Inhibition,"PLC/PRF/5 tumors; day 18, PM00104 0.90, sorafenib 60 mg/kg/day",26.4%
same,% T/C,PLC/PRF/5 tumors; [11],79.5%
same,% Inhibition,PLC/PRF/5 tumors; [12],47.8%
same,% T/C,PLC/PRF/5 tumors; [12],52.2%
same,% Inhibition,PLC/PRF/5 tumors; [13],46.6%
same,% T/C,PLC/PRF/5 tumors; [13],53.4%
same,% Inhibition,PLC/PRF/5 tumors; [14],56.6%
same,% T/C,PLC/PRF/5 tumors; [14],43.4%
same,% Inhibition,PLC/PRF/5 tumors; [15],57.1%
same,% T/C,PLC/PRF/5 tumors; [15],42.9%
same,% T/C,"PLC/PRF/5 tumors; day 35, PM00104 0.90, sorafenib 30 mg/kg/day",54.7%
same,% T/C,"PLC/PRF/5 tumors; day 35, PM00104 0.90, sorafenib 60 mg/kg/day",36.5%
same,% T/C,"PLC/PRF/5 tumors; day 39, PM00104 0.90, sorafenib 30 mg/kg/day",59.3%
same,% Inhibition,PLC/PRF/5 tumors; [16],49.8%
same,% T/C,PLC/PRF/5 tumors; [16],50.2%
same,% Inhibition,PLC/PRF/5 tumors; [17],44.6%
same,% T/C,PLC/PRF/5 tumors; [17],55.4%
same,% Inhibition,"HepG2 tumors; day 19, PM00104 0.60, sorafenib 30 mg/kg/day",−1.4%
same,% Inhibition,"HepG2 tumors; day 19, PM00104 0.60, sorafenib 60 mg/kg/day",11.2%
same,% Inhibition,HepG2 tumors; [18],−1.4%
same,% T/C,HepG2 tumors; [18],101.4%
same,% Inhibition,"HepG2 tumors; day 19, PM00104 0.90, sorafenib 60 mg/kg/day",11.2%
same,% Inhibition,"HepG2 tumors; day 22, PM00104 0.60, sorafenib 30 mg/kg/day",−23.5%
same,% Inhibition,"HepG2 tumors; day 22, PM00104 0.60, sorafenib 60 mg/kg/day",21.3%
same,% Inhibition,HepG2 tumors; [11],−23.5%
same,% T/C,HepG2 tumors; [11],123.5%
same,% Inhibition,HepG2 tumors; [12],21.3%
same,% T/C,HepG2 tumors; [12],78.7%
same,% Inhibition,"HepG2 tumors; day 26, PM00104 0.60, sorafenib 30 mg/kg/day",8.7%
same,% Inhibition,"HepG2 tumors; day 26, PM00104 0.60, sorafenib 60 mg/kg/day",39.9%
same,% Inhibition,"HepG2 tumors; day 26, PM00104 0.90, sorafenib 30 mg/kg/day",8.7%
same,% Inhibition,HepG2 tumors; [19],39.9%
same,% T/C,HepG2 tumors; [19],60.1%
same,% Inhibition,"HepG2 tumors; day 30, PM00104 0.60, sorafenib 30 mg/kg/day",−0.9%
same,% Inhibition,"HepG2 tumors; day 30, PM00104 0.60, sorafenib 60 mg/kg/day",38.2%
same,% Inhibition,HepG2 tumors; [20],−0.9%
same,% T/C,HepG2 tumors; [20],100.9%
same,% Inhibition,HepG2 tumors; [21],38.2%
same,% T/C,HepG2 tumors; [21],61.8%
same,% Inhibition,"HepG2 tumors; day 33, PM00104 0.60, sorafenib 30 mg/kg/day",9.6%
same,% Inhibition,"HepG2 tumors; day 33, PM00104 0.60, sorafenib 60 mg/kg/day",33.8%
same,% Inhibition,"HepG2 tumors; day 33, PM00104 0.90, sorafenib 30 mg/kg/day",9.6%
same,% Inhibition,HepG2 tumors; [22],33.8%
same,% T/C,HepG2 tumors; [22],66.2%
CO[C@H]1C[C@@H]2CC[C@@H](C)[C@@](O)(O2)C(=O)C(=O)N2CCCC[C@H]2C(=O)O[C@H]([C@H](C)C[C@@H]2CC[C@@H](OC(=O)C(C)(CO)CO)[C@H](OC)C2)CC(=O)[C@H](C)/C=C(\C)[C@@H](O)[C@@H](OC)C(=O)[C@H](C)C[C@H](C)/C=C/C=C/C=C/1C [temsirolimus],% T/C on day 9,NCI-H460 tumors; Temsirolimus 10 mg/kg/day IP,101.9%
same,% T/C on day 13,NCI-H460 tumors; Temsirolimus 10 mg/kg/day IP,60.4%
same,% T/C on day 16,NCI-H460 tumors; Temsirolimus 10 mg/kg/day IP,55.5%
same,% T/C on day 21,NCI-H460 tumors; Temsirolimus 10 mg/kg/day IP,40.5%
same,% T/C on day 24,NCI-H460 tumors; Temsirolimus 10 mg/kg/day IP,18.9%
same,% T/C on day 30,NCI-H460 tumors; Temsirolimus 10 mg/kg/day IP,22.0%
same,% T/C on day 38,NCI-H460 tumors; Temsirolimus 10 mg/kg/day IP,52.0%
same,% T/C on day 41,NCI-H460 tumors; Temsirolimus 10 mg/kg/day IP,66.4%
same,% T/C on day 9,NCI-H460 tumors; Temsirolimus 20 mg/kg/day IP,104.4%
same,% T/C on day 13,NCI-H460 tumors; Temsirolimus 20 mg/kg/day IP,66.4%
same,% T/C on day 16,NCI-H460 tumors; Temsirolimus 20 mg/kg/day IP,68.4%
same,% T/C on day 21,NCI-H460 tumors; Temsirolimus 20 mg/kg/day IP,46.8%
same,% T/C on day 24,NCI-H460 tumors; Temsirolimus 20 mg/kg/day IP,35.9%
same,% T/C on day 27,NCI-H460 tumors; Temsirolimus 20 mg/kg/day IP,15.9%
same,% T/C on day 30,NCI-H460 tumors; Temsirolimus 20 mg/kg/day IP,23.9%
same,% T/C on day 38,NCI-H460 tumors; Temsirolimus 20 mg/kg/day IP,61.2%
same,% T/C on day 41,NCI-H460 tumors; Temsirolimus 20 mg/kg/day IP,65.2%
